Assay results taken from patent publication US20260284016A1, “COMBINATIONS AND METHODS FOR ENHANCING CHECKPOINT INHIBITOR THERAPIES IN CANCER TREATMENT” (PURDUE RESEARCH FOUNDATION, priority 2004, published 2026).

Key:
[1] = system: M2-induced THP-1 macrophages; test: Reprogramming of M2-polarized THP-1 macrophages, marker mRNA by qPCR; format: cell-based, human; details: 2 hours with compound, qPCR
Protocol: THP-1 cells were seeded into 96-well plates at a density of 60,000 cells/well. Cells were differentiated into unpolarized macrophages by 48 hours incubation with 200 nM PMA followed by 24 hours incubation in fresh RPMI medium. […] Cultures were maintained at 37° C., in a humidified 5% CO2 incubator.
Total RNA was isolated from 1×10^5-2×10^5 macrophages using a Quick-RNA™ MicroPrep kit (Zymo Research, Irvine, CA) according to the manufacturer-recommended protocol. The RNA samples were then reverse-transcribed into cDNA using high-capacity cDNA reverse transcription kits (Applied Biosystems, Foster City, CA; #4368814), qPCR analyses were performed using the iTaq™ Universal SYBR Green SuperMix (Bio-Rad Laboratories GmbH, Hercules, CA; #1725121), iCycler thermocycler, and iCycler iQ 3.0 software (Bio-Rad Laboratories GmbH, Hercules, CA) to track the expression of markers characteristic of macrophage polarization states, IL-6, CXCL10, IFNα, IFN-γ and CD86 were used as markers for an M1 phenotype, while CCL18. CD206, CD163 and Arg1 were employed as markers for the M2 phenotype, IL-1β, PDGFβ, MMP9 and TIMP 3 were measured as indicators of an anti-inflammatory phenotype. IRAK-4 was used as an indicator of TLR7 stimulation. To control for specificity of the amplification products, a melting curve analysis was performed. […] Each sample was analyzed independently in triplicate for each marker.
In both data sets, the cells were harvested for gene analysis by qPCR.
Primarily, human monocytic (THP-1) cells were induced to the M2-like phenotype using the methods and materials previously described. In particular, THP-1 cells were seeded into 96-well plates at a density of 60,000 cells/well. Cells were differentiated into unpolarized macrophages by 48 h incubation with 200 nM PMA followed by 24 hours incubation in fresh RPMI medium. The resulting macrophages were polarized to an M2-like phenotype by incubation with […] IL-4, 20 ng/ml […], and 5 ng/mL IL-6 for 48h. Cultures were maintained at 37° C. in a humidified 5% CO2 incubator.
In addition to the nonconjugated TLR7 agonist, conjugated compounds of the present disclosure were likewise evaluated. Human THP-1 cells were induced to macrophages having the M2-like phenotype per the methods set forth herein (e.g., using 20 ng/mL IL-4, 20 ng/mL IL-13, 5 ng/mL IL-6), then reprogrammed with different nM concentrations of various compounds of the present disclosure for 2 hours; namely, a nonconjugated (free drug) TLR7 agonist compound having formula I and/or II (data shown collectively as Compound 3A), a folate-conjugated TLR7 agonist compound having formula XV (having a releasable linker) (e.g., Compound 3B), a folate-conjugated TLR7 agonist compound having formula XVII (having a non-releasable linker) (e.g., Compound 3C), and a folate-conjugated TLR7 agonist compound having formula XVI (having a non-releasable linker) (e.g., Compound 3D). The cells were subsequently harvested for gene analysis by qPCR and the relative expression of CCL18 (FIG. 14A), CD206 (FIG. 14B), and IL-1β (FIG. 14C) analyzed.

[2] = system: M2-induced THP-1 macrophages; test: Secreted CCL18 and IL-1β in THP-1 supernatants by ELISA; format: cell-based, human; details: low concentration range (0.1-10 nM), ELISA
Protocol: FIGS. 6A-6D show graphical data representative of various marker levels measured from M2-induced THP-1 macrophages treated with different concentrations of drugs for 48 hours (FIGS. 6A and 6B) or for 2 hours, then displaced with fresh medium and cultured for the remaining 46 hours (FIGS. 6C and 6D). In both cases, cell supernatants were collected and secreted CCL18 protein and IL-1β was detected by ELISA.
Further, to ensure that the above mRNA analyses accurately reflected the levels of anti-inflammatory cytokines produced by IL-4, IL-6 plus IL-13 stimulated THP-1 cells, the concentrations of CCL18 and IL-1β polypeptides in the THP-1 supernatants were quantitated by ELISA assay.
CCL18 and IL-1β were quantified in induced THP-1 cell supernatants using a human DuoSet ELISA Development System (R&D Systems Europe, Abingdon, UK: #DY394-05) and an IL-1 beta Human ELISA Kit (Thermo Fisher Scientific, Waltham, MA; #BMS224-2) as described by manufactures. BALF samples were analyzed for mouse IFN-γ using ELISA MAX™ Deluxe (Biolegend, San Diego, CA; #430804).
Additionally, cell supernatants were collected and secreted CCL18 protein was detected by ELISA.

BM-induced mice = system: BM-induced mice
Protocol: Studies were also performed to determine if macrophages in pulmonary fibrotic lungs might be specifically targeted with folate-linked drugs in vivo. […] (The BM model is widely regarded to be helpful in terms of enabling mechanistic investigations relevant to fibrogenesis in an in vivo context.)
More specifically, eight-week-old C57BL6 male mice from Charles River (average weight 22 g to 25 g) were housed under pathogen-free conditions at room temperature (22° C.) under a 12 hours light-dark cycle. Mice were placed on a folate deficient chow (Envigo Teklad Global Rat Food Pellets) for 1 week prior to the BM or PBS instillation. Fresh water and folate-deficient diet were freely available. All animal procedures were approved by the Purdue Animal Care and Use Committee in accordance with National Institute of Health guidelines.
Thereafter, the mice were anesthetized with ketamine/xylazine and the necks of the mice were shaved using hair remover lotion and then sterilized with 70% alcohol. A small incision was made on the neck to visualize the trachea. Mice were positioned at a 75-degree angle and injected intratracheally with 100 μL sterile PBS or BM (Cayman Chemicals, Ann Arbor, MI; #13877) dissolved in PBS (0.75 mg/kg) using a 1 cc syringe with 26 G needle. Body weights were monitored every other day throughout the experiment.
Lobes of the right lung collected above were weighed, placed in a pressure-tight vial (Supelco Inc., Bellefonte, PA; #27003), and hydrolyzed with 6N HCl (10 ml/g, v/w) in a sand bath at 120° C., for 3.5 hours. The hydrolyzed solution was cooled at 4° C., for 15 min and transferred to a 1.5 ml Eppendorf tube prior to centrifugation at 12,000 rcf for 15 min at 4° C. Supernatant was carefully collected, aliquoted and used for hydroxyproline (HYP) analysis.
For the subsequent HYP analysis, 10 μl of sample was transferred into a 96-well plate and neutralized with 10 μl of 5.3 M sodium hydroxide solution. Isopropanol ([…]) was then added to each well followed by 20 μl of oxidation buffer and the mixture was incubated on a shaker at room temperature for 5 min. Analytical reagent (260 μl) was added, and the plate was incubated on a shaker at room temperature for 30 seconds and incubated immediately at 60° C., for 25 min. The absorbance was measured at 560 nm (A560) within 15 min. All reagents were prepared according to a previously reported protocol.
For histological analysis of the lung sections, fixed lungs (see above) were embedded in paraffin, sectioned and stained with hematoxylin-eosin (H&E), Masson's trichrome or F3 (anti-mouse FRβ antibody). Tissue sections were examined in a blinded manner by a licensed pathologist. More than 90×10^6 cells were quantified per section using Aperio-Image Scope (Leica Biosystems, Wetzlar, DE).
For this, BM-treated mice were intravenously injected every other day beginning on day 10 with either vehicle (3% DMSO in PBS) or Compound 1B (see FIG. 8A). […] In BM-induced experimental pulmonary fibrosis in mice, inflammation is known to persist for about 9-10 days after BM installation. Because, inflammation to fibrosis switch happens in this model approximately day 9 to day 14, and anti-inflammatory markers start appearing at about day 10, dosing began on day 10 (FIG. 8A).
Two doses were given every other day till day 21. The individual doses on a day are separated by 6 hours to prevent any “tolerance” to TLR agonists. Mice were then sacrificed on day 21 and subjected immediately to bronchoalveolar lavage followed by resection of the lungs for immunohistochemistry and quantitation of collagen and hydroxyproline.

[3] = system: FRβ-expressing macrophages; test: In vivo folate imaging with OTL38, resected organs; parameters: species or system C57BL/6 mice
Protocol: (§1) To evaluate if anti-inflammatory lung macrophages in these mice can be specifically targeted with folate-linked drugs, 10 days after the instillation, 10 nmol (for in vivo imaging) or 100 nmol (for in vivo labeling) of a folate-linked, near infrared fluorescent dye (OTL38) with or without 200-fold excess of FA-glucosamine (a competitor of OTL38) was injected into the tail veins of BM-treated mice and the dye uptake in the major organs was evaluated.
(§2) Finally, for the in vivo folate imaging studies, major organs (heart, lung, spleen, liver, small intestine, large intestine, and kidney) were resected and imaged using an AMI live imager (Spectral Instruments Imaging, Tucson, AZ). For in vivo folate receptor labeling studies, lungs of the mice were harvested immediately following euthanasia, digested with a lung dissociation kit (Miltenyi Biotec, Bergisch Gladbach, DE; #130-098-427) as described by gentleMACS Octo Dissociator with Heathers (Miltenyi Biotec, Bergisch Gladbach, DE; #130-096-427) as described by manual and filtered through a 70 μm cell strainer (Miltenyi Biotec, Bergisch Gladbach, DE: #130-098-462). Cells collected in the filtrate were depleted of erythrocytes by ammonium sulfate lysis, washed 2× in cold PBS and labeled for 30 min on ice with antibodies to desired macrophage markers (FITC-CD11b, Biolegend, San Diego, CA; #101205; FE-F4/80. Biolegend. San Diego, CA: #123109). Labeled macrophages were then washed twice in PBS, stained with 7AAD (viability stain) for 15 min and analyzed by flow cytometry using BD Accuri C6 Software (BD Biosciences, San Jose, CA).
FIGS. 7C and 7D show FRβ IHC staining of human IPF lung tissue (FIG. 7C) and healthy human lung tissue (FIG. 7D). […] After 2 hours, mice were sacrificed prior to analysis. […] For in vivo folate receptor labeling studies, lungs of the mice were harvested immediately following euthanasia, digested and then labeled with antibodies to desired macrophages markers (FITC-CD11b, PE-F4/80) and 7AAD (live/dead staining) and analyzed by flow cytometry.

FRβ positive macrophages = test: In vivo folate receptor labeling with OTL38, flow cytometry of digested lungs; parameters: species or system C57BL/6 mice; details: fibrotic mice
Protocol: as §1
as §2, with “Cells collected in the filtrate were depleted of erythrocytes by ammonium sulfate lysis, washed 2× in cold PBS and labeled for 30 min on ice with antibodies to desired macrophage markers (FITC-CD11b, Biolegend, San Diego, CA; #101205; FE-F4/80. Biolegend. San Diego, CA: #123109).” left out, “CA). […]” for “CA).”

Compound | CCL18 relative expression [1] | CD206 relative expression [1] | IL-1β relative expression [1] | reduction of anti-inflammatory markers relative to the other compounds [1] | secretion of CCL18 protein [2] | also measured
Nc1nc2ncc(CNc3ccc(C(=O)N[C@@H](CCC(=O)NCCOCCOCCOCCOCCOCCOCCOCCOCCOCCOCCOCCOCCOCC4CCCN(CCNc5ccc(Cn6c(=O)[nH]c7c(N)nc(C(F)(F)F)cc76)cn5)C4)C(=O)O)cc3)nc2c(=O)[nH]1 (stereo partly drawn) [Compound 3C] | reduced | reduced | reduced | most effective | downregulated | benefit to the subject mice (BM-induced mice; 3 nmol dosage): did not show measurable benefit; hydroxyproline (HP) (BM-induced mice; 10 nmol dosage): decreasing; number of BALF cells (BM-induced mice; 10 nmol dosage): decreasing; survival rates (BM-induced mice; 10 nmol dosage): increased the survival rates
Nc1nc2ncc(CNc3ccc(C(=O)N[C@@H](CCC(=O)NCCOCCOCCOCCOCC4CCCN(CCNc5ccc(Cn6c(=O)[nH]c7c(N)nc(C(F)(F)F)cc76)cn5)C4)C(=O)O)cc3)nc2c(=O)[nH]1 (stereo partly drawn) [Compound 3D] | reduced | reduced | reduced | most effective | downregulated | –
OTL38 | – | – | – | – | – | OTL38 accumulation in organs ([3]; BM-treated mice, day 10, 10 nmol tail vein, 2 h): pronounced accumulation in the fibrotic lungs; lung accumulation under competition ([3]; BM-treated mice, with 200-fold excess folate-glucosamine): nearly quantitative blockade of lung accumulation; OTL38 fluorescence in organs ([3]; healthy mice, 10 nmol tail vein, 2 h): only observed in the kidneys of healthy mice; macrophage-like cells with folate-targeted dye retention (FRβ positive macrophages; 100 nmol OTL38): about 22%; folate-dye retention under competition (FRβ positive macrophages; 100 nmol OTL38 with 200-fold excess folate-glucosamine): blocked essentially all folate-dye retention
Nc1nc2ncc(CNc3ccc(C(=O)NC(CCC(=O)N[C@@H](CSSCCOC(=O)OCC4CCCN(CCNc5ccc(Cn6c(=O)[nH]c7c(N)nc(C(F)(F)F)cc76)cn5)C4)C(=O)O)C(=O)O)cc3)nc2c(=O)[nH]1 (stereo partly drawn) [Compound 3B] | reduced | reduced | reduced | – | downregulated | –
Nc1nc(C(F)(F)F)cc2c1[nH]c(=O)n2Cc1ccc(NCCN2CCCC(CO)C2)nc1 (stereo not drawn) [Compound 3A] | – | – | – | – | downregulated | –
